Reference: US20220370461A1, “USE OF IMIDAZOPYRIMIDINE OR IMIDAZOTRIAZINE COMPOUNDS FOR PREVENTION, ALLEVIATION, OR TREATMENT OF COGNITIVE DISORDERS, OR FOR IMPROVING COGNITIVE FUNCTION” (SK BIOPHARMACEUTICALS CO., LTD., priority 2019, published 2022)

How the values were obtained:
Type in all cases: in vivo
[1] = system: rat model exhibiting cognitive ability decreased by treatment with dizocilpine; assay: Object recognition test in rat model with cognitive ability decreased by dizocilpine; settings: for recognition index: P<0.01 vs negative control
Description: As an animal model of cognitive disorder, an animal model of which the cognitive ability was decreased by administering dizocilpine, a cognitive inhibitor, was used.
(§1) Male rats (Wistar, 4 weeks old, Orient Bio Co., Ltd.) were purchased and acclimatized for one week or more in an animal cage. The experimental animals were raised in a light-controlled environment (illuminated for 12 hours/nonilluminated for 12 hours) and stored and managed according to the laboratory animal care standards of the Institutional Animal Care and Use Committee (IACUC) in an environment where a temperature of 19° C. to 25° C. and a relative humidity of 30% to 70% were maintained and water and food could be freely available. The rats were stabilized for one week or more, and then used for an object recognition test. The rats were randomly divided into groups and the test was performed under illumination.
To create an animal model inducing symptoms of decreased cognitive ability, the experimental animals were treated with dizocilpine, an N-methyl-D-aspartate (NMDA) receptor inhibitor.
(§2) Dizocilpine (purchased from Sigma) was dissolved in physiological saline used as a vehicle to be freshly prepared, and subcutaneously administered at a dose of 0.1 mg/kg in a volume of 1 ml per 1 kg of rat body weight 30 minutes before training. To a control group, only physiological saline was administered.
The test compound was dissolved in 5% DMSO (dimethyl sulfoxide) in 10% Cremophor, and orally administered at doses of 0.03, 0.1, and 0.3 mg/kg in a volume of 1 ml per 1 kg of rat body weight one hour before training. To a control group, only vehicle (5% DMSO in 10% Cremophor) was administered.
Each rat was handled by the experimenter for 3 minutes or more, and box acclimation for 3 minutes was performed two times in an empty box before the experiment. After administration of vehicle or test compound intraperitoneally at a dose of 1 mg/kg one hour before training and of vehicle or dizocilpine subcutaneously 30 minutes before training, the rats were boxed for training. Training was conducted by exposing the rats in a box in which two identical plastic cylinders or stainless square pyramids were placed. One hour after training, the test was performed in a box in which one plastic cylinder and one stainless square pyramid was placed. During the test, the time during which the rat explored each object was measured. The test results were analyzed using a stainless square pyramid as a novel object in the case of rats trained in a box in which two plastic cylinders were placed and a plastic cylinder as a novel object in the case of rats trained in a box in which two stainless steel pyramids were placed.
The recognition index was calculated based on the time during which the object was explored, the data on the recognition index between groups was analyzed by one-way analysis of variance (ANOVA) and Dunnett's multiple comparison test, and then the effect was defined as significant when p<0.05. All results were expressed as mean±SEM.

[2] = system: rat model exhibiting cognitive ability decreased by treatment with dizocilpine; assay: Y-maze test in rat model with cognitive ability decreased by dizocilpine
Description: as §1, with “Committee” for “Committee (IACUC)”, “a Y-maze” for “an object recognition”
To create an animal model inducing symptoms of decreased cognitive ability, experimental animals were treated with dizocilpine, an NMDA receptor inhibitor.
as §2
The test compound was dissolved in 5% DMSO in 9.5% Cremophor, and orally administered at doses of 0.1, 0.3, and 1 mg/kg in a volume of 5 ml per 1 kg of rat body weight one hour before training. To a control group, only vehicle (5% DMSO in 9.5% Cremophor) was administered.
The rats were handled by the experimenter for 3 minutes for two days, and a Y-maze test was performed the next day. After administration of vehicle or test compound intraperitoneally one hour before test and of vehicle or dizocilpine subcutaneously 30 minutes before test, the Y-maze test was performed for 5 minutes by placing the rat at the end of one arm in the Y-maze and allowing the rat to move freely. The three arms positioned at the same angle in the Y-maze had the same length of 45 cm, the same width of 10 cm, and the same height of 20 cm. A case where a rat visited three different arms in succession was defined as an alternation behavior.
The alternation rate was determined by identifying the alternation behavior of the rat based on the visit record to each arm in the Y-maze test, the data on the alternation rate between groups was analyzed by one-way ANOVA and Dunnett's multiple comparison test, and then the effect was defined as significant when p<0.05. All results were expressed as mean±SEM.

[3] = system: rat model undergone natural forgetting; assay: Object recognition test in natural forgetting rat model; settings: for Recognition index (mean ± SEM): test 24 h after training

SMILES: C[C@]12N[C@H](Cc3ccccc31)c1ccccc12 [Dizocilpine, dizocilpine, reference compound]
- Recognition index (mean ± SEM) ([1]; dizocilpine 0.1 mg/kg sc only (negative control), vehicle group 63.29 ± 1.56): 49.77 ± 1.03
- Alternation rate (mean ± SEM) ([2]; dizocilpine 0.1 mg/kg sc only (negative control), vehicle group 70.1 ± 2.8): 49.2 ± 5.3
- alternation rate ([2]; dizocilpine only (negative control), P<0.001 vs vehicle group): 49.2 ± 5.3%

SMILES: Fc1ccc(-c2cnc3nc(COc4ccccn4)cn3c2)c(C(F)(F)F)c1 [test compound, 6-[4-fluoro-2-(trifluoromethyl)phenyl]-2-(2-pyridyloxymethyl)imidazo[1,2-a]pyrimidine]
- Recognition index (mean ± SEM) ([3]; test compound 0.1 mg/kg po, first experiment, vehicle 48.61 ± 1.87): 56.57 ± 2.37
- recognition index ([3]; test compound 0.1 mg/kg, first experiment, P<0.05 vs control): 56.57±2.37
- Recognition index (mean ± SEM) ([3]; test compound 0.3 mg/kg po, first experiment): 59.77 ± 2.64
- recognition index ([3]; test compound 0.3 mg/kg, first experiment, P<0.01 vs control): 59.77±2.64
- Recognition index (mean ± SEM) ([3]; test compound 1 mg/kg po, second experiment, vehicle 51.20 ± 2.61): 60.91 ± 2.72
- recognition index ([3]; test compound 1 mg/kg, second experiment, P<0.01 vs control): 60.91±2.72
- Recognition index (mean ± SEM) ([3]; test compound 3 mg/kg po, second experiment): 56.20 ± 2.27
- recognition index ([3]; test compound 3 mg/kg, second experiment): 56.20±2.27
- Recognition index (mean ± SEM) ([1]; dizocilpine 0.1 mg/kg sc + test compound 0.03 mg/kg po, test 1 h after training, index = novel/total exploring time × 100): 51.95 ± 1.79
- Recognition index (mean ± SEM) ([1]; dizocilpine 0.1 mg/kg sc + test compound 0.1 mg/kg po, test 1 h after training): 57.95 ± 1.8
- Recognition index (mean ± SEM) ([1]; dizocilpine 0.1 mg/kg sc + test compound 0.3 mg/kg po, test 1 h after training): 57.62 ± 1.89
- recognition index ([1]; dizocilpine + test compound 0.1 mg/kg): 57.95±1.8%
- recognition index ([1]; dizocilpine + test compound 0.3 mg/kg): 57.62±1.89%
- Alternation rate (mean ± SEM) ([2]; dizocilpine 0.1 mg/kg sc + test compound 0.1 mg/kg po, 5 min Y-maze, actual/maximum possible alternations × 100): 67.3 ± 3.5
- Alternation rate (mean ± SEM) ([2]; dizocilpine 0.1 mg/kg sc + test compound 0.3 mg/kg po): 57.3 ± 5.7
- Alternation rate (mean ± SEM) ([2]; dizocilpine 0.1 mg/kg sc + test compound 1 mg/kg po): 49.9 ± 7.2
- alternation rate ([2]; dizocilpine + test compound 0.1 mg/kg, P<0.001 vs negative control): 67.3 ± 3.5%
- alternation rate ([2]; dizocilpine + test compound 0.3 mg/kg, tendency toward recovery): 57.3 ± 5.7%
